From EP0233031B1, “Methylthioribose analogues, their preparation and use as medicinal agents and biocides” (STATE OF OREGON BY AND THROUGH OREGON STATE BOARD OF HIGHER …, priority 1986, dated 1987) come the findings set out here.

Format in all cases: cell-based
The subject of data set [1] is Candida albicans. In words: Growth inhibition of Candida albicans in LB broth (optical density / visible growth). The conditions noted are these: for OD550 24 hrs / OD550 7 days / OD550 at 24 Hrs: 10^4 cells; for OD550 at 24 Hrs: LB broth. How it is done: In the following examples, an MTR kinase-dependent microorganism is treated in vitro with compounds of this invention. In the following examples, LB is a growth medium (Luria-Bertani) containing, per liter, 10 grams Bacto-tryptone, 5 grams Bacto-yeast extract and 10 grams NaCl. OD₅₅₀ is a measure of the optical density of the suspension at the indicated time. Low optical density indicates a low cell concentration in the suspension and thus that compounds were effective to inhibit the growth of the microorganisms.

Data set [2] relates to Candida albicans. Nature of the data set: Colony count of Candida albicans after incubation with ETR (cytocidal vs cytostatic). Conditions: for Total # Organisms: colonies x dilution factor 200; for Colonies: 10^3 orgs, 100 l of 1:10 dilution plated. An excerpt: In this example, samples containing a known number of microorganisms were colonized without ETR and in the presence of ETR. In the instances where growth occurred, one colony formed for each microorganism.

The test system of data set [3] is mouse marrow. Nature of the data set: CFU-GM assay, toxicity toward mouse marrow. An excerpt:
In the following examples, human bone marrow and mouse marrow cells were subjected to ethylthioribose. In each case, a preparation of immature blood cells from bone marrow were conventionally stimulated to mature in a gel matrix. Immature human granulocytic precursor (CFU-GM) cells formed a colony in the matrix and the number of cells in the colony was counted. Such tests are believed to be a good measure of the toxicity of the subject compounds to humans.

Data set [4] concerns Ochromonas malhamensis (ATCC #11532). Nature of the data set: Toxicity to Ochromonas malhamensis culture (cell number by hemacytometer). The conditions noted are these: Poterioochromonas malhamensis, ATCC11532; 48 hours of incubation; thioglycolate broth; 4x10^4 cells per ml; read-out: ID50 (the source's name). As for the experimental part:
• a. Procedure. 2 ml cultures of O. malhamensis were set up at a cell density of 4x10⁴ per ml. The culture medium used was thioglycolate broth and incubation took place at ambient temperature near a south-facing window (these organisms are photosynthetic). ETR was added at the appropriate dilution at the beginning of the experiment. Cell number was determined using a hemacytometer. The data (shown below) were obtained after 48 hours of incubation. • b. Results. [formula]

The subject of data set [5] is Giardia lamblia (Portland 1 strain). In words: Inhibition of Giardia lamblia culture (cell number by hemacytometer). How it is done:
• a. Procedure. Giardia lamblia was cultured in Diamond's TP-S-1 medium supplemented with 10% heat-inactivated calf serum and antibiotics (penicillin and streptomycin). The antibiotics were added to prevent contamination by bacteria. Tube cultures containing 7 mls of medium were seeded with 5 x 10⁴ organisms per ml and incubated horizontally at 37°C for 48 hrs. ETR was added at the beginning of the experiment. Cell number was determined with the aid of a hemacytometer. • b. Results. [formula]

The test system of data set [6] is Plasmodium falciparum. In words: Plasmodium falciparum in vitro erythrocyte culture, Giemsa-stained thin smears. As for the experimental part: • a. Procedure. Parasitized erythrocytes from a stock four-day-old culture at approximately 10% infection were mixed with washed clean erythrocytes to give a final parasitemia of approximately 1%. Using 1.2 cm plastic Petri dishes duplicate 1 ml cultures were initiated with drug dilutions in complete RPMI-1640, containing 0.1 ml of erythrocytes and 50 ug of gentamycin/ml. The cultures were supplemented with RPMI-1640 (25 mM HEPES), 0.24% sodium bicarbonate and 10% human serum (Type A⁻). All cultures were gassed with 90% nitrogen, 5% carbon dioxide and 5% oxygen prior to incubation at 37°C. Parasite growth was assessed by microscopic evaluation of Giemsa-stained thin-smears. • b. Results. [formula]

Turning to `OC1O[C@H](CCl)[C@@H](O)[C@H]1O` (some centres unmarked) [5-Chloro-5-Deoxyribose, 5-deoxy-5-chlororibose], the “OD550 24 hrs” value in data set [1] (0.2 of 10mM stock + LB 1.8), in data set [1] (0.4 of 10mM stock + LB 1.6) and in data set [1] (0.8 of 10mM stock + LB 1.2) was 0.0 in each case. Further, the “OD550 7 days” value in data set [1] (0.2 of 10mM stock + LB 1.8), in data set [1] (0.4 of 10mM stock + LB 1.6) and in data set [1] (0.8 of 10mM stock + LB 1.2) was 0.0 throughout. The “killing of Candida albicans” value in data set [1] (conclusion of Example 20) was “effective to kill”.
For `CCSC[C@H]1OC(O)[C@H](O)[C@@H]1O` (some centres unmarked) [ETR, 5-ethylthio-5-deoxyribose], the “OD550 at 24 Hrs” value in data set [1] (ETR 0.092mM) is 0.409; in data set [1] (ETR 0.23mM), 0.355; in data set [1] (ETR 0.46mM) it was 0.357; in data set [1] (ETR 0.9mM) it was 0.120; in data set [1] (ETR 2.3mM) it was 0.0; in data set [1] (ETR 4.6mM), 0.0. The “OD550 at 24 Hrs” value in data set [1] (ETR 9.2mM) is listed as 0.0. Also, the “growth of Candida albicans” value in data set [1] (conclusion of Examples 17 and 18) is “clearly inhibits the growth”. Besides, the “Total # Organisms” value in data set [2] (3 hrs (+ETR) 4mM) turned out to be 400; in data set [2] (5 hrs (w/ETR) 4mM) it was 0. The Colonies came to 2 in data set [2] (3 hrs incubation with ETR 0.5ml (4mM)) and 0 in data set [2] (5 hrs incubation with ETR 1.5ml (4mM)). In addition, the “cytocidal as opposed to cytostatic” value in data set [2] (conclusion of Example 19) is reported as “cytocidal”. Moreover, the “colonies formed in the presence of ETR” value in data set [2] (summary statement of Example 19) is “less than 1,000 colonies”. In addition, the CFU-GM in data set [3] (ETR 100 (1:1)) is on record as 34 --; in data set [3] (ETR 100 (1:1k), duplicate counts) it was 36,37; in data set [3] (ETR 100 (1:2), duplicate counts) it was 37,33; in data set [3] (ETR 100 (1:4), duplicate counts), 32,34; in data set [3] (ETR 100 (1:10), duplicate counts) it was 36,34; in data set [3] (ETR 100 (1:10k), duplicate counts), 35,32. Besides, the CFU-GM in data set [3] (ETR 100 (1:20k), duplicate counts) is 32,34; in data set [3] (ETR 100 (1:40), duplicate counts), 33,35; in data set [3] (ETR 100 (1:50), duplicate counts) it was 37,36; in data set [3] (ETR 100 (1:100)) it was 39 --; in data set [3] (ETR 100 (1:100k), duplicate counts), 33,35; in data set [3] (ETR 100 (stock), duplicate counts) it was 35,36. Also, the IC50 in data set [4] is 20 µM; in data set [5] (Giardia duodenalis, 48 hrs at 37°C, 5 x 10^4 organisms per ml, read-out: ID50 (the source's name)) it was roughly 450 µM. The “cell death and lack of "swimming"” value in data set [5] (concentrations ranging from 0.62mM to 5mM) is “significant cell death and lack of "swimming"”. Also, the parasitemia result in data set [6] (24 hours, 1mM ETR) was “remained at or below the level of the initial inoculum”; in data set [6] (24 hours, 5mM ETR), “remained at or below the level of the initial inoculum”; in data set [6] (48 hours, 1 mM ETR (lowest concentration tested), initial seeding <1.0%) it was “less than 0.1%”. For the same compound, the parasite growth result in data set [6] (24 hours, 1 mM ETR (lowest concentration tested)) is “a small increase in growth was noted but the parasites appeared abnormal”. Also, the infection result in data set [6] (72 hours, 1 mM ETR (lowest concentration tested)) is recorded as “less than 1 parasite per 10,000 red cells”. Moreover, in data set [6] (72 hours, all drug-treated cultures), the culture infection entry is “completely negative”. Besides, the reappearance of parasitemia result in data set [6] (after 5 days (the last 3 days without drug)) was “did not reappear”. Moreover, the “inhibition of P. falciparum in vitro” value in data set [6] (overall conclusion) is given as “inhibitory”.
